Laboratory results from ChEMBL document CHEMBL1201862, “PubChem BioAssay data set” (2004).
Calls of active or inactive are those of the source.

Legend:
HEK293 [1] = test: HEK cell cytotoxicity by LDH release, dose response, cytotoxicity control for IDE activator project, fluorescence, HEK cells (AID 588440); type: functional, cell-based; details: Homo sapiens;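 note: cytotoxicity by LDH release measuring loss of membrane integrity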
Insulin-degrading enzyme [2] = target: T1, Insulin-degrading enzyme (Homo sapiens, UniProt P14735); test: activators of recombinant IDE enzyme, dose response, counter-screen for IDE activator project, biochemical, fluorescence polarization (AID 588681)
T1 sequence (P14735 whole entry): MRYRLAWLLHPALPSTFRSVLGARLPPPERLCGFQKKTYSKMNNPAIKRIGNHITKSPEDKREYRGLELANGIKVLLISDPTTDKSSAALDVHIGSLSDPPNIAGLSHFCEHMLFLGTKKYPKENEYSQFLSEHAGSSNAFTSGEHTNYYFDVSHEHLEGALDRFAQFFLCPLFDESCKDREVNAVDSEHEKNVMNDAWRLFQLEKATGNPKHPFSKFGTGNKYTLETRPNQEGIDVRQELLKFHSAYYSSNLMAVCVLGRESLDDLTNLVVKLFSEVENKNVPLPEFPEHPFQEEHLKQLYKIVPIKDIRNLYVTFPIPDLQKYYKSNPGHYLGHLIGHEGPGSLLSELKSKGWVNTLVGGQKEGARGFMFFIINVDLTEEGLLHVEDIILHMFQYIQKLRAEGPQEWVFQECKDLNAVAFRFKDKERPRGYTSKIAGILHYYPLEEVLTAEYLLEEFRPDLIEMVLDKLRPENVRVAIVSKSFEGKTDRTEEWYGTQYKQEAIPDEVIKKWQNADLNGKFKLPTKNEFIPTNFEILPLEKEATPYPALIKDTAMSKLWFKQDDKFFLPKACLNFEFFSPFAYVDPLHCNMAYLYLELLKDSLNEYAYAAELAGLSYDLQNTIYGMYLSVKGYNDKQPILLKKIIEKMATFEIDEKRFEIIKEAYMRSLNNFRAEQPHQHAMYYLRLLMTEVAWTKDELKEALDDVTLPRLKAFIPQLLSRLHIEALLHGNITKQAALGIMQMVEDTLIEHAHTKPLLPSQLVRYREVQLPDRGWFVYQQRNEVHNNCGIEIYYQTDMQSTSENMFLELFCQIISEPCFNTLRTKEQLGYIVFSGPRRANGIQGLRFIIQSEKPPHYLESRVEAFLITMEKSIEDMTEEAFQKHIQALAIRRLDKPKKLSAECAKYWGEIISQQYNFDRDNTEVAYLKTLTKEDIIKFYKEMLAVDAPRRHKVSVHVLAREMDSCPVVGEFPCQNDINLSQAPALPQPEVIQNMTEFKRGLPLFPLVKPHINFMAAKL

HEK293 [3] = test: optical interference in Abeta FP readout, dose response, artefact control for IDE activator project, biochemical, fluorescence polarization (AID 588442); type: functional, cell-based; details: Homo sapiens
Insulin-degrading enzyme [4] = target: T1, Insulin-degrading enzyme; test: activators of endogenous IDE in HEK cells, dose response, cell-based, fluorescence polarization (AID 588439); type: functional
[5] = AlphaScreen signal interference compounds, dose response, artefact control for ARNT-TACC3 interaction inhibitor project, biochemical, luminescence, cherry-pick (AID 651705); type: functional;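 note: AlphaScreen bead proximity signal that flags compounds interfering with the detection technology; potency reflects signal decrease which marks the compound as an assay artifact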
[6] = target: Aryl hydrocarbon receptor (Homo sapiens, UniProt P35869); details: Potency;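 note: confirmatory quantitative high-throughput screen measuring activation of the AhR signaling pathway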
Chain of Aryl hydrocarbon receptor (P35869 whole entry): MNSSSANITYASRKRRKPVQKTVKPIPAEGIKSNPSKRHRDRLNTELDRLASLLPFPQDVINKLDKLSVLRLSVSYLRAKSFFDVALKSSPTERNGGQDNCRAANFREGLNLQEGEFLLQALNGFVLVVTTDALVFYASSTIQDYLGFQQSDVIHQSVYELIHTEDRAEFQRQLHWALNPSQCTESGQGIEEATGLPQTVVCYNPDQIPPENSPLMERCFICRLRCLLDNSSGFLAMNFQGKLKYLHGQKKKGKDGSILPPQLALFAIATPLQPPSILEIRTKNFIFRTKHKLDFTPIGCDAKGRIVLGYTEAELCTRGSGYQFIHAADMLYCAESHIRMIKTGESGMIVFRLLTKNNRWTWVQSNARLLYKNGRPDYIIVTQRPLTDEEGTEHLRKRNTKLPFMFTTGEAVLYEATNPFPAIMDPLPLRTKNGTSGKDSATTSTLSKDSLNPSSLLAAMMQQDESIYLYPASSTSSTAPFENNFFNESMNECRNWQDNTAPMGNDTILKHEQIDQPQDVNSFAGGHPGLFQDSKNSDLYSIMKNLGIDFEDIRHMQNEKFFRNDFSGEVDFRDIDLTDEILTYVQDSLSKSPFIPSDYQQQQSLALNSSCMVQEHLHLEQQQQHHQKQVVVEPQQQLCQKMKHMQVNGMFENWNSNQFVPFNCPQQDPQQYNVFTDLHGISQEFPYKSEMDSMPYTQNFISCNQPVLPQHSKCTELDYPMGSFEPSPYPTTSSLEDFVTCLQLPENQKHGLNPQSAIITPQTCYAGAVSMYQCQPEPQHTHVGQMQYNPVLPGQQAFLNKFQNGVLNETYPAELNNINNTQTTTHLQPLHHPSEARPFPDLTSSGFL

[7] = Luminescence Cell-Based Dose Retest to Confirm Inhibitors of Cancer Stem Cells. [Related pubchem assays (depositor defined):AID2717, AID2721]; type: functional; details: Homo sapiens
[8] = Shn3 3'UTR reporter inhibitors, dose response, cell-based, Clone20 osteoblasts, firefly luciferase, cherry-picked (AID 624132); type: functional;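 note: firefly luciferase luminescence from reporter carrying the Shn3 3'UTR in osteoblasts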
[9] = control 3'UTR Renilla luciferase suppression, dose response, counter-screen for Shn3 inhibitor project, cell-based, Clone20-Shn3RL, cherry-picked (AID 624133); type: functional
[10] = target: Neurotensin receptor type 1 (Homo sapiens, UniProt P30989); type: functional;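 note: Image-based confirmatory dose-response assay measuring agonist activity at NTR1; NTR1-expressing U2OS osteosarcoma cells imaged for beta-arrestin GFP spot formation; agonist potency where compounds increase beta-arrestin recruitment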
Chain of Neurotensin receptor type 1 (P30989 whole entry): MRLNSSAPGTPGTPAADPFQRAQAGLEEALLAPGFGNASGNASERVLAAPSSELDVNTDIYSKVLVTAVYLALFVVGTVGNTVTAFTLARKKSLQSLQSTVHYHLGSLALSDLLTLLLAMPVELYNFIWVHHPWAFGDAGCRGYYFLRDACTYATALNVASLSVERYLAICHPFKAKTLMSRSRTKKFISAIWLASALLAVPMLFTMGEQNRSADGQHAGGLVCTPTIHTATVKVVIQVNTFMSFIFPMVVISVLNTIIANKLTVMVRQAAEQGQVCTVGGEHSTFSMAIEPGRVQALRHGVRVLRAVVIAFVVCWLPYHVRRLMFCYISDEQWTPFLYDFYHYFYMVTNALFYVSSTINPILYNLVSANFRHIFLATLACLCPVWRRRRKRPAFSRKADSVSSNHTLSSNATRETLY

Protein Wnt-3a = Protein Wnt-3a (Mus musculus, UniProt P27467); test: Wnt3a-driven reporter signaling inhibition, dose response, selectivity assay for Gli-SUFU antagonist project, Wnt-LIGHT cells, luminescence (AID 651570); type: functional; details: read-out: IC50_Mean;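 note: Wnt-LIGHT reporter cells stimulated with conditioned medium from Wnt3a-producing cells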
Chain of Protein Wnt-3a (P27467 whole entry): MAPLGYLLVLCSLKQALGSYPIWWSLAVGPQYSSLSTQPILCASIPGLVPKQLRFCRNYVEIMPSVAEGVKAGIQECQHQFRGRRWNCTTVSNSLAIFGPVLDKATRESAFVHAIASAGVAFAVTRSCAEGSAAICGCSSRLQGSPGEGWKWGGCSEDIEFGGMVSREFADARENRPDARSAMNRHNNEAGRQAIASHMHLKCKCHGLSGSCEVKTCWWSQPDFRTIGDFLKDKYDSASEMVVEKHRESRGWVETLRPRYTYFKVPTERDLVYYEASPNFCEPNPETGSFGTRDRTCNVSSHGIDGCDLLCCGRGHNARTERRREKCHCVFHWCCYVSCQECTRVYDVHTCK

[11] = HepG2 cell cytotoxicity, dose response, cytotoxicity control for Shn3 inhibitor project, CellTiter-Glo, cherry-picked (AID 624134); type: functional, cell-based
[12] = target: DNA repair and recombination protein RAD54-like (Homo sapiens, UniProt Q92698); test: inhibitors of human RAD54 branch migration, confirmation, biochemical, fluorescence, cherry-picked samples, dose series (AID 651657); type: functional
Chain of DNA repair and recombination protein RAD54-like (Q92698 whole entry): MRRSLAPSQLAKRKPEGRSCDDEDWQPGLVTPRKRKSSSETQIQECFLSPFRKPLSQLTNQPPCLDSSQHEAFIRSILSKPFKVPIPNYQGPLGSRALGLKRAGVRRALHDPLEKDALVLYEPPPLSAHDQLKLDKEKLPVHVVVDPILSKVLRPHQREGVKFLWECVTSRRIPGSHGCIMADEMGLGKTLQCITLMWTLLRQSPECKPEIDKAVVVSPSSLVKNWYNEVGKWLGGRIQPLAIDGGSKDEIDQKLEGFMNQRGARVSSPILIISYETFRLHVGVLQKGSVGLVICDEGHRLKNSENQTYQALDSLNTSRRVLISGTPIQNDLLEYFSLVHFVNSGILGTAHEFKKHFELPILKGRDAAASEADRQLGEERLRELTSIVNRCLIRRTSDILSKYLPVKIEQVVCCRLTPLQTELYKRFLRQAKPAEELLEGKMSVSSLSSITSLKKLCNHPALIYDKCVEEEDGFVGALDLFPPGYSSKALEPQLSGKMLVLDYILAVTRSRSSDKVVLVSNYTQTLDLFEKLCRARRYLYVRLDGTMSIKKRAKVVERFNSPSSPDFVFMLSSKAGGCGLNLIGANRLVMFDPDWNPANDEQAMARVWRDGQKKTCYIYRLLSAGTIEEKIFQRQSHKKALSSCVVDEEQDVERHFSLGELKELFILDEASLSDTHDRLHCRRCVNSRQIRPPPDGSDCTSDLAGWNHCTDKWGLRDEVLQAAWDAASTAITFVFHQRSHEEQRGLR

[13] = target: DNA repair protein RAD52 homolog (Homo sapiens, UniProt P43351); type: functional, biochemical
Chain of DNA repair protein RAD52 homolog (P43351 whole entry): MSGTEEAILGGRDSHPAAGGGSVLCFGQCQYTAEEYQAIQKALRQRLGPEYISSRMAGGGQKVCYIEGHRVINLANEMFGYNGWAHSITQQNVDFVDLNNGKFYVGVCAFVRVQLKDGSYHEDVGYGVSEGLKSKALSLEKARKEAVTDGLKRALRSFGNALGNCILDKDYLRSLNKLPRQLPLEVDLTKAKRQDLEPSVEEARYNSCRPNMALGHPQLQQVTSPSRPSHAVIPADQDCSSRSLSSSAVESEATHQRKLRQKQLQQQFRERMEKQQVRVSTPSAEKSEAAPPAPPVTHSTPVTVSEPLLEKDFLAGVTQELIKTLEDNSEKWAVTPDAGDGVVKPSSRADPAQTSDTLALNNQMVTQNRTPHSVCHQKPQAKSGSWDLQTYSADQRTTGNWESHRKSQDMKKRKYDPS

[14] = target: FAD-linked sulfhydryl oxidase ALR (Homo sapiens, UniProt P55789); test: inhibitors of human ALR sulfhydryl oxidase, dose response, biochemical, H2O2 detection, luminescence, cherry-pick (AID 493248)
Chain of FAD-linked sulfhydryl oxidase ALR (P55789 whole entry): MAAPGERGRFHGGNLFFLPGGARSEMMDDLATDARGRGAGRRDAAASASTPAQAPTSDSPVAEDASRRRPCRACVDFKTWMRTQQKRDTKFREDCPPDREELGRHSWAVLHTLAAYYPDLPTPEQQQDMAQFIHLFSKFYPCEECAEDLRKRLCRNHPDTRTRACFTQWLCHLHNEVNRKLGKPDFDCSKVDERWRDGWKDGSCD

[15] = target: T2, Probable nicotinate-nucleotide adenylyltransferase (Staphylococcus aureus (strain N315), UniProt P65502); type: functional, Staphylococcus aureus subsp. aureus N315;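 for IC50 Mean: confirmatory dose-response retesting of NadD inhibitor hits first found in an ultra-high-throughput screen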
T2 sequence (P65502 whole entry): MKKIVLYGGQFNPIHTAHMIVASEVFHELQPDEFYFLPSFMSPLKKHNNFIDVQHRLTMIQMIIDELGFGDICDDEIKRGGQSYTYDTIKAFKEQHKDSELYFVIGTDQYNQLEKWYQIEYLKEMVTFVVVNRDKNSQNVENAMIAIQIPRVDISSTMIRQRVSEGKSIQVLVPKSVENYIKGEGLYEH

Orexin receptor type 2 [16] = target: T3, Orexin receptor type 2 (Homo sapiens, UniProt O43614); test: Counterscreen assay for antagonists of the orexin 1 receptor (OX1R; HCRTR1): Fluorescence-based cell-based dose response assay for antagonists of the orexin 2 receptor (OX2R; HCRTR2), run by assay provider.; type: functional
T3 sequence (O43614 whole entry): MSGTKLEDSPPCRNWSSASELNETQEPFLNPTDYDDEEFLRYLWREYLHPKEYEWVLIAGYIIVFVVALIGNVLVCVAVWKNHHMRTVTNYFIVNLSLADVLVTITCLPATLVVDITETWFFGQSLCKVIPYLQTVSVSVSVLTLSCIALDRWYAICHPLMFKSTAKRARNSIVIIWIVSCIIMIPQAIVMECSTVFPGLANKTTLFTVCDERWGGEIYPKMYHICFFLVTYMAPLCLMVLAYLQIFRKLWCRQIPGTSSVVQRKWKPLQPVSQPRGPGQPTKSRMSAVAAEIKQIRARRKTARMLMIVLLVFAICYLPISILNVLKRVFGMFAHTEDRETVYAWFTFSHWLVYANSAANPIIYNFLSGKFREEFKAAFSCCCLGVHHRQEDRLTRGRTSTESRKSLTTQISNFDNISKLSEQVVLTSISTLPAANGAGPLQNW

[17] = target: Disintegrin and metalloproteinase domain-containing protein 17 (Homo sapiens, UniProt P78536); test: ADAM17 protease inhibitors, dose response, counter-screen for ADAM10 exosite inhibitor project, biochemical, quenched FRET substrate (AID 743253)
[18] = target: Peroxisome proliferator-activated receptor gamma/Nuclear receptor coactivator 3 (Homo sapiens, UniProt P37231); type: functional;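 note: agonist potency for raising coactivator recruitment to the receptor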
[19] = target: T4, Orexin/Hypocretin receptor type 1 (Homo sapiens, UniProt O43613); test: (§1) Fluorescence-based cell-based high throughput dose response assay for antagonists of the orexin 1 receptor (OX1R; HCRTR1). [Related pubchem assays (depositor defined):AID434989, AID435008, AID463079, AID485270, AID492963, AID492964, AID492965, AID493232, AID504717, AID504718]; type: functional
T4 sequence (O43613 whole entry): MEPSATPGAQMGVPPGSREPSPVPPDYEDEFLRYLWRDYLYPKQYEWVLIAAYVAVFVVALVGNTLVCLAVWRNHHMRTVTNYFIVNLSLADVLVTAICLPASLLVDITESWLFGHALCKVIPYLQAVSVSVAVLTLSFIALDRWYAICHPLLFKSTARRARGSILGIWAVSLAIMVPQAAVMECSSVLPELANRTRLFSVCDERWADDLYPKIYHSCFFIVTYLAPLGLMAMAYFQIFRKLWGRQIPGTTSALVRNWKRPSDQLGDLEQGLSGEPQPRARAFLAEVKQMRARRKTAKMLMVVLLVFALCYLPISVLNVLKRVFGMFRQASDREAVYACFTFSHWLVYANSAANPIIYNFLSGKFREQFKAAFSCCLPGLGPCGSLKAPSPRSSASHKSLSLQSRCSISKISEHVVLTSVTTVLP

[20] = (§2) Counterscreen for antagonists of the orexin 1 receptor (OX1R; HCRTR1): Fluorescence-based cell-based high throughput dose response assay to identify antagonists of the parental CHO cell line. [Related pubchem assays (depositor defined):AID434989, AID435008, AID463079, AID485270, AID492963, AID492964, AID492965, AID493232, AID504699, AID504701]; type: functional
CHO-K1 = test: as §2, with “Homogeneous time resolved fluorescence (HTRF)-based” for “Fluorescence-based”, “cell-based” for “cell-based high throughput”, “CHO-K1” for “CHO”; type: functional; details: Cricetulus griseus;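 note: potency for inhibition of ATP-stimulated IP1 production as antagonists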
[21] = target: T2, Probable nicotinate-nucleotide adenylyltransferase; type: functional, Staphylococcus aureus subsp. aureus N315; details: read-out: IC50_Mean
[22] = ADAM10 inhibitors, peptide cleavage, dose response, biochemical, QFRET (AID 743254);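 note: ADAM10 enzyme with the DM2 quenched FRET peptide as substrate; EDANS fluorescence gain as the protease cuts the substrate; inhibitor potency against ADAM10 proteolytic activity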
[23] = target: Peroxisome proliferator-activated receptor gamma/Nuclear receptor coactivator 2 (Homo sapiens, UniProt P37231); type: functional;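 note: agonist potency for raising coactivator recruitment to the receptor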
[24] = target: T4, Orexin/Hypocretin receptor type 1; test: as §1, with “Homogeneous Time Resolved Fluorescence (HTRF)-based” for “Fluorescence-based”; type: functional
Orexin receptor type 2 [25] = target: T3, Orexin receptor type 2; test: Counterscreen assay for antagonists of the orexin 1 receptor (OX1R; HCRTR1): Homogeneous Time Resolved Fluorescence (HTRF)-based cell-based dose response assay for antagonists of the orexin 2 receptor (OX2R; HCRTR2), run by assay provider.; type: functional
[26] = target: Peroxisome proliferator-activated receptor gamma/Nuclear receptor coactivator 1 (Homo sapiens, UniProt P37231); type: functional;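 note: agonist potency as compounds enhance coactivator SRC-1 recruitment to PPARgamma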
[27] = target: Nuclear receptor subfamily 5 group A member 2 (Homo sapiens, UniProt O00482); type: functional, cell-based;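 note: HEK293T cells transfected with LRH-1 and a StAR promoter luciferase reporter; potency for inhibitors that lower LRH-1 driven reporter light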
Chain of Nuclear receptor subfamily 5 group A member 2 (O00482 whole entry): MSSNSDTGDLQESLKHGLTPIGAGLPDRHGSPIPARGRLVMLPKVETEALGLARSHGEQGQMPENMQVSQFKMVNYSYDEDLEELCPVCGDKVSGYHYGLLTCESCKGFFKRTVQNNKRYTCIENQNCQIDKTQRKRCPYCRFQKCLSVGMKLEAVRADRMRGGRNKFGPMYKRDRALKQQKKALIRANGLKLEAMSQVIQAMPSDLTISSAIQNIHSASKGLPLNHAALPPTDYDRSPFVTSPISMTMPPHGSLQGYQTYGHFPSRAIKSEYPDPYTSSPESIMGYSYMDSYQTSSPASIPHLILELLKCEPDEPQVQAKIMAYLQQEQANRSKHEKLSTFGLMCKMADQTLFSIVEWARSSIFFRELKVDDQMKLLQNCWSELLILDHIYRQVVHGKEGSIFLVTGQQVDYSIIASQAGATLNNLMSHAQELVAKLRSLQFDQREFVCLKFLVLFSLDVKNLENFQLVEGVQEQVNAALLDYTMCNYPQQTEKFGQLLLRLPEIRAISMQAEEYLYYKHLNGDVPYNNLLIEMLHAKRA

[28] = StAR promoter reporter inhibition counter-screen, dose response, counter-screen for LRH-1 inverse agonist project, cell-based, luminescence, luciferase reporter (AID 651969); type: functional
Steroidogenic factor 1 = Steroidogenic factor 1 (Homo sapiens, UniProt Q13285); test: Counterscreen for inverse agonists of the liver receptor homolog-1 (LRH-1; NR5A2): Luminescence-based cell-based high throughput dose response assay to identify inverse agonists of the Steroidogenic Factor 1 Nuclear Receptor (SF1; NR5A1).; type: functional
Beta-lactamase [29] = target: Beta-lactamase (Salmonella choleraesuis (strain SC-B67), UniProt Q5J463)
Chain of Beta-lactamase (Salmonella choleraesuis (strain SC-B67), UniProt Q5J463) (Q5J463 whole entry): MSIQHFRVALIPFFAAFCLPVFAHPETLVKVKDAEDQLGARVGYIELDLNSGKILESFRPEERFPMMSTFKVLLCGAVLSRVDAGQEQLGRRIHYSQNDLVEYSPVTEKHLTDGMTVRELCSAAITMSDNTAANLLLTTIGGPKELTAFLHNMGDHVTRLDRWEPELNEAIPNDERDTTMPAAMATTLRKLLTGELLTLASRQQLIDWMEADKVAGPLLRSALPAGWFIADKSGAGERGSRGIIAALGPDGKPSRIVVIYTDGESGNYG

Beta-lactamase [30] = target: Beta-lactamase (Pseudomonas aeruginosa, UniProt Q79MP6);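 note: biochemical dose-response test of metallo-beta-lactamase enzyme inhibition, read out by epi-absorbance; purified recombinant IMP-1 metallo-beta-lactamase with nitrocefin as substrate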
Chain of Beta-lactamase (Pseudomonas aeruginosa, UniProt Q79MP6) (Q79MP6 whole entry): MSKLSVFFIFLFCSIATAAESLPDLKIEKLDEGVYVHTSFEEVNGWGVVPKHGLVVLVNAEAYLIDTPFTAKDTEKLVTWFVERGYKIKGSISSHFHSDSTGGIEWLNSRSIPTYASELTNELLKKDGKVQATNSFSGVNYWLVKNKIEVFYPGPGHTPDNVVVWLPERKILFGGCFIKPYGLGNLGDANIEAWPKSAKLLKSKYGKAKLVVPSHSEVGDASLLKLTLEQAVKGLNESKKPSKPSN

Beta Lactamase = Beta Lactamase (Pseudomonas aeruginosa, UniProt Q932Y6);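 note: confirmatory high-throughput screen measuring VIM-2 metallo-beta-lactamase inhibition by epi-absorbance in dose response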
Chain of Beta Lactamase (Q932Y6 whole entry): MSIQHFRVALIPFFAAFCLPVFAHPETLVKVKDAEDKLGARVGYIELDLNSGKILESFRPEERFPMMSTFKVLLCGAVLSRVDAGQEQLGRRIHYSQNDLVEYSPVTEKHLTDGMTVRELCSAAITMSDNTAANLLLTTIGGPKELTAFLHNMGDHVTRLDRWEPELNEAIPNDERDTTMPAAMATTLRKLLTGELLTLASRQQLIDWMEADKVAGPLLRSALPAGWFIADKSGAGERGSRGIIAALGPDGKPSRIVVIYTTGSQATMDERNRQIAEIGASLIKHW

[31] = target: T5, Mitochondrial peptide methionine sulfoxide reductase (Bos taurus, UniProt P54149); type: functional;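 note: absorbance read-out, biochemical high-throughput dose-response screen for MsrA inhibitors, confirmatory; recombinant bovine MsrA coupled to E. coli TrxB with NADPH and selenocystamine; potency is for inhibitors of MsrA activity on DMSO substrate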
T5 sequence (P54149 whole entry): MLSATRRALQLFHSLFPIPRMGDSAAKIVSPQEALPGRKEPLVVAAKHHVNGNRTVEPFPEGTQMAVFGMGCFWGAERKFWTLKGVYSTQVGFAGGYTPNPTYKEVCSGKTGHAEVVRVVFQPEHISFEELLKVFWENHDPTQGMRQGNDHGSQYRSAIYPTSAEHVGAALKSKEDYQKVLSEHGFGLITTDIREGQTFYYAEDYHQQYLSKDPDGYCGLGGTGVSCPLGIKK

O=C(CSc1nc(N2CCOCC2)nc(N2CCOCC2)n1)Nc1ccc([N+](=O)[O-])cc1
IC50 (HEK293 [1]): > 89.2 µM (inactive)
EC50 (Insulin-degrading enzyme [2]): > 54.7 µM (inactive)
EC50 (HEK293 [3]): 21.2 µM (inactive)
EC50 (Insulin-degrading enzyme [4]): > 54.7 µM (inactive)

CC(=O)OC[C@H]1O[C@@H](Sc2cccc3cccnc23)[C@H](OC(C)=O)[C@@H](OC(C)=O)[C@H]1OC(C)=O
AC50 [5]: 91.4 µM (active)

COC(=O)Nc1cccc(OC(=O)Nc2cccc(C)c2)c1
AC50 [6]: 39.8 µM (inconclusive)

CCCCNc1c(-c2ccc(OC)c(Sc3ccc(OC)cc3)c2)nc2ccccn12
AC50 [7]: 6 µM (active)
AC50 [8]: 0.821 µM (active)
AC50 [9]: 4.38 µM (active)
EC50 [10]: 32.2 µM (inactive)
IC50 (Protein Wnt-3a): 11.5 µM (active)
AC50 [11]: 48.4 µM (active)

COc1ccc(Nc2c3ccccc3nc3ccccc23)cc1
AC50 [12]: 7.04 µM (active)
AC50 [13]: 1.9 µM (active)
AC50 [14]: 0.016 µM (active)

O=C(CSc1ccc(Br)c2cccc(Cl)c12)Nc1ccc(S(=O)(=O)Nc2nccs2)cc1
IC50 [15]: 6.53 µM (active)
IC50 (Orexin receptor type 2 [16]): 31.5 µM (inactive)
IC50 [17]: > 69.5 µM (inactive)
EC50 [18]: 84.2 µM (not active)
IC50 [19]: 4.31 µM (active)
IC50 [20]: > 49.8 µM (inactive)
IC50 (CHO-K1): > 66.2 µM (inactive)
IC50 [21]: 25.8 µM (active)
IC50 [22]: > 69.5 µM (inactive)
EC50 [23]: 28.6 µM (not active)
IC50 [24]: 1.43 µM (active)
IC50 (Orexin receptor type 2 [25]): > 50 µM (inactive)
EC50 [26]: 61 µM (not active)

Cc1cccc(NC(=O)COC(=O)CN2C(=O)c3ccccc3C2=O)c1C
IC50 [27]: 46.7 µM (inactive)
IC50 [28]: 35.9 µM (inactive)
IC50 (Steroidogenic factor 1): 5.33 µM (active)

CC(NC(C)c1ccccc1Cl)C(=O)Nc1cccc(S(=O)(=O)N2CCCCC2)c1 (stereo not given)
IC50 (Orexin receptor type 2 [16]): 18.9 µM (inactive)
IC50 [19]: 3.25 µM (active)
IC50 [20]: 48.8 µM (inactive)
IC50 (CHO-K1): > 66.2 µM (inactive)
IC50 [24]: 0.238 µM (active)
IC50 (Orexin receptor type 2 [25]): > 50 µM (inactive)

O=C1C2C(c3ccccc3)C=CC(c3ccccc3)C2C(=O)N1c1ccncc1 (stereo not given)
IC50 (Beta-lactamase [29]): > 59.6 µM (inactive)
IC50 (Beta-lactamase [30]): 14.6 µM (inactive)
IC50 (Beta Lactamase): 62.4 µM (inactive)

COC1C(OC(=O)/C=C/C=C/C=C/C=C/C(=O)O)CCC2(CO2)C1C1(C)OC1CC=C(C)C.c1ccc(Nc2ccccc2)cc1 (stereo not given)
IC50 [31]: 94.5 µM (inactive)

COC(=O)C(C(=O)OC)c1ncccc1[N+](=O)[O-]
IC50 (HEK293 [1]): > 89.1 µM (inactive)
EC50 (Insulin-degrading enzyme [2]): > 54.7 µM (inactive)
EC50 (HEK293 [3]): > 55.9 µM (inactive)
EC50 (Insulin-degrading enzyme [4]): > 54.7 µM (inactive)
